Marks after values point to notes of the source that are not given here.
Test: LogP by HPLC on reversed phase columns (EEC directive 79/831 Annex V.A8)
Format: physicochemical
Conditions: not given
Method: [table] If more than one Log P value is available within the same method, all the values are given and separated by “+”. […] Lambda-max-values were determined using UV-spectra from 200 nm to 400 nm and the peak values of the chromatographic signals.
With `COCCn1cc2ccc(-c3noc(C(F)(F)F)n3)cc2n1` [Compound I-017] the LogP was 3.00^[a].
With `COCCn1ncc2ccc(-c3noc(C(F)(F)F)n3)cc21` [Compound I-016] the LogP was 3.35^[a].
In the case of `COC(=O)Nc1cc2cc(-c3noc(C(F)(F)F)n3)ccc2cn1` [Compound I-051], the LogP is reported as 3.45^[a].
For `FC(F)(Cl)c1nc(-c2ccc3ncn(Cc4ccccc4)c3c2)no1` [Compound I-058], the LogP was 3.23^[a].
For `O=C(c1cnc2ccc(-c3noc(C(F)(F)F)n3)cn12)C(F)(F)F` [Compound I-035], the LogP was 3.41^[a].
In the case of `CN(C)C(=O)Oc1ccc2cc(-c3noc(C(F)(F)F)n3)ccc2c1` [Compound I-034], the LogP is reported as 4.18^[a].
For `FC(F)(F)c1nc(-c2ccc3cnn(Cc4ccccc4)c3c2)no1` [Compound I-007], the LogP was 4.34^[a].
In the case of `COCCNC(=O)c1cn2cc(-c3noc(C(F)(F)F)n3)ccc2n1` [Compound I-037], the LogP is reported as 2.18^[a].
With `Fc1cc2[nH]ncc2cc1-c1noc(C(F)(F)F)n1` [Compound I-061] the LogP was 2.61^[a].
In the case of `FC(F)(F)c1nc(-c2ccc3cn(Cc4ccccc4)nc3c2)no1` [Compound I-008], the LogP is reported as 4.03^[a].
For `Fc1cc2c(cnn2Cc2ccccc2)cc1-c1noc(C(F)(F)F)n1` [Compound I-064], the LogP was 4.28^[a].
With `ON=C1CCCc2cc(-c3noc(C(F)(F)F)n3)ccc21` [Compound I-001] the LogP was 3.62^[a].
With `Fc1cc2[nH]ncc2cc1-c1noc(C(F)(F)Cl)n1` [Compound I-062] the LogP was 2.78^[a].
For `Fc1cc2nn(Cc3ccccc3)cc2cc1-c1noc(C(F)(F)Cl)n1` [Compound I-066], the LogP was 4.11^[a].
In the case of `CCn1c(C)nc2cc(-c3noc(C(F)(F)F)n3)ccc21` [Compound I-045], the LogP is reported as 1.60^[a].
With `CC(=O)Nc1cc2cc(-c3noc(C(F)(F)F)n3)ccc2cn1` [Compound I-054] the LogP was 2.90^[a].
In the case of `FC(F)(F)c1nc(-c2ccc3nc[nH]c3c2)no1` [Compound I-002], the LogP is reported as 1.46^[a].
In the case of `CCC(=O)Nc1cc2cc(-c3noc(C(F)(F)F)n3)ccc2cn1` [Compound I-052], the LogP is reported as 3.33^[a].
For `FC(F)(F)c1nc(-c2ccc3nn(Cc4ccccc4)cc3c2)no1` [Compound I-012], the LogP was 4.03^[a].
For `COC(=O)N1CCCc2cc(-c3noc(C(F)(F)Cl)n3)ccc21` [Compound I-027], the LogP was 4.27^[a].
For `Fc1cc2nn(Cc3ccccc3)cc2cc1-c1noc(C(F)(F)F)n1` [Compound I-065], the LogP was 3.92^[a].
With `FC(F)(F)c1nc(-c2ccc3ncn(Cc4ccccc4)c3c2)no1` [Compound I-059] the LogP was 3.06^[a].
For `CCC(=O)N1CCCc2cc(-c3noc(C(F)(F)F)n3)ccc21` [Compound I-030], the LogP was 3.68^[a].
With `CC(C)(C)OC(=O)N1CCc2cc(-c3noc(C(F)(F)F)n3)ccc2C1` [Compound I-038] the LogP was 4.93^[a].
For `Nc1ccc2cc(-c3noc(C(F)(F)F)n3)ccc2c1` [Compound I-042], the LogP was 3.47^[a].
For `CCn1cc2cc(-c3noc(C(F)(F)F)n3)ccc2n1` [Compound I-010], the LogP was 3.15^[a].
In the case of `Nc1cc2cc(-c3noc(C(F)(F)F)n3)ccc2cn1` [Compound I-055], the LogP is reported as 2.31^[a].
In the case of `FC(F)(Cl)c1nc(-c2ccc3nc[nH]c3c2)no1` [Compound I-041], the LogP is reported as 1.57^[a].
In the case of `Cn1cnc2ccc(-c3noc(C(F)(F)F)n3)cc21` [Compound I-004], the LogP is reported as 1.67^[a].
In the case of `COC(=O)N1CCc2ccc(-c3noc(C(F)(F)F)n3)cc2C1` [Compound I-032], the LogP is reported as 3.59^[a].
With `CON(C(=O)c1ccccc1)C1CCCc2cc(-c3noc(C(F)(F)F)n3)ccc21` (stereo not drawn) [Compound I-022] the LogP was 4.72^[a].
With `FC(F)(Cl)c1nc(-c2ccc3[nH]ncc3c2)no1` [Compound I-063] the LogP was 2.84^[a].
For `CC(=O)N1CCc2cc(-c3noc(C(F)(F)F)n3)ccc2C1` [Compound I-049], the LogP was 2.71^[a].
In the case of `FC(F)(Cl)c1nc(-c2ccc3cc[nH]c3c2)no1` [Compound I-046], the LogP is reported as 3.68^[a].
For `COC(=O)N1CCc2cc(-c3noc(C(F)(F)F)n3)ccc2C1` [Compound I-048], the LogP was 3.63^[a].
In the case of `COCCOC(=O)N(OC)C1CCCc2cc(-c3noc(C(F)(F)F)n3)ccc21` (stereo not drawn) [Compound I-025], the LogP is reported as 4.27^[a].
For `O=C(Cc1ccccc1)N1CCc2cc(-c3noc(C(F)(F)F)n3)ccc2C1` [Compound I-050], the LogP was 3.83^[a].
In the case of `O=C(C1CC1)N1CCc2cc(-c3noc(C(F)(F)F)n3)ccc2C1` [Compound I-047], the LogP is reported as 3.31^[a].
With `CC(=O)Nc1ccc(-c2noc(C(F)(F)F)n2)c2c1CCO2` [Compound I-053] the LogP was 2.32^[a].
With `FC(F)(F)c1nc(-c2ccc3ncc(Br)n3c2)no1` [Compound I-036] the LogP was 2.75^[a].
For `Cn1cnc2cc(-c3noc(C(F)(F)F)n3)ccc21` [Compound I-003], the LogP was 1.70^[a].
For `CCC(=O)N1CCCc2cc(-c3noc(C(F)(F)Cl)n3)ccc21` [Compound I-029], the LogP was 3.90^[a].
In the case of `CCn1cc2ccc(-c3noc(C(F)(F)F)n3)cc2n1` [Compound I-015], the LogP is reported as 3.21^[a].
With `COC(=O)N1CCc2ccc(-c3noc(C(F)(F)Cl)n3)cc2C1` [Compound I-026] the LogP was 3.83^[a].
For `CCC(=O)N1CCc2ccc(-c3noc(C(F)(F)F)n3)cc2C1` [Compound I-031], the LogP was 3.11^[a].
With `FC(F)(F)c1nc(-c2ccc3ncsc3c2)no1` [Compound I-043] the LogP was 3.21^[a].
In the case of `CCC(=O)N1CCc2ccc(-c3noc(C(F)(F)Cl)n3)cc2C1` [Compound I-033], the LogP is reported as 3.31^[a].
In the case of `CCOC(=O)c1cn2cc(-c3noc(C(F)(F)F)n3)ccc2n1` [Compound I-039], the LogP is reported as 2.59^[a].
In the case of `CC(=O)Nc1ccc(-c2noc(C(F)(F)F)n2)c2c1CCC2` [Compound I-056], the LogP is reported as 3.28^[a].
In the case of `COCCC(=O)N(OC)C1CCCc2cc(-c3noc(C(F)(F)F)n3)ccc21` (stereo not drawn) [Compound I-021], the LogP is reported as 3.96^[a].
In the case of `CON(C(=O)C1CC1)C1CCCc2cc(-c3noc(C(F)(F)F)n3)ccc21` (stereo not drawn) [Compound I-019], the LogP is reported as 4.44^[a].
With `COC(=O)N1CCCc2cc(-c3noc(C(F)(F)F)n3)ccc21` [Compound I-028] the LogP was 4.03^[a].
In the case of `COC(=O)N(OC)C1CCCc2cc(-c3noc(C(F)(F)F)n3)ccc21` (stereo not drawn) [Compound I-024], the LogP is reported as 4.34^[a].
For `Cn1cnc2cc(-c3noc(C(F)(F)Cl)n3)ccc21` [Compound I-060], the LogP was 1.86^[a].
With `FC(F)(F)c1nc(-c2ccc3cn[nH]c3c2)no1` [Compound I-006] the LogP was 2.70^[a].
For `CCn1ncc2cc(-c3noc(C(F)(F)F)n3)ccc21` [Compound I-011], the LogP was 3.67^[a].
With `FC(F)(F)c1nc(-c2cc(Cl)c3nn[nH]c3c2)no1` [Compound I-044] the LogP was 2.78^[a].

Same assay, conditions: method [a]: LC-UV, acidic range, 0.1% formic acid in water and acetonitrile as eluent
For `O=C(Nc1ccc2cc(-c3noc(C(F)(F)F)n3)ccc2c1)C(F)(F)F` [Compound I-057], the LogP was 4.27^[a].

Same assay, conditions: reversed phase HPLC column; method [a]: LC-UV, acidic range, 0.1% formic acid in water and acetonitrile as eluent
With `CCN(OC)C1CCCc2cc(-c3noc(C(F)(F)F)n3)ccc21` (stereo not drawn) [Compound I-023, N-Ethyl-O-methyl-N-{6-[5-(trifluoromethyl)-1,2,4-oxadiazol-3-yl]-1,2,3,4-tetrahydronaphthalen-1-yl}hydroxylamine] the chromatographic logP was 6.04.
In the case of `CONC1CCCc2cc(-c3noc(C(F)(F)F)n3)ccc21` (stereo not drawn) [Compound I-018, O-Methyl-N-{6-[5-(trifluoromethyl)-1,2,4-oxadiazol-3-yl]-1,2,3,4-tetrahydronaphthalen-1-yl}hydroxylamine], the chromatographic logP is reported as 4.08.

From patent publication US20210009541A1, “FUNGICIDAL OXADIAZOLES” (Bayer Aktiengesellschaft, priority 2018, published 2021)
